Measured values: ChEMBL document CHEMBL5728516, “4,6-substituted-pyrazolo[1,5-a]pyrazines as janus kinase inhibitors” (2021)

Biological target: Tyrosine-protein kinase JAK2 (Homo sapiens, UniProt O60674)
Assay: JAK2 Inhibition Assay: Compounds of Formula I were screened for their ability to inhibit JAK2 using the general enzyme inhibition assay method, in which the assay mixture contained 1 mM ATP, 10 μM Omnia® Y7 peptide (Catalog # IVGN KNZ3071C, Invitrogen Corporation, Carlsbad, Calif.) and 4 nM JAK2 in a total volume of 25 μL. JAK2 was purchased from Invitrogen Corporation, Carlsbad, Calif. (catalog # IVGN PV4288).

Chain of Tyrosine-protein kinase JAK2 (O60674 whole entry): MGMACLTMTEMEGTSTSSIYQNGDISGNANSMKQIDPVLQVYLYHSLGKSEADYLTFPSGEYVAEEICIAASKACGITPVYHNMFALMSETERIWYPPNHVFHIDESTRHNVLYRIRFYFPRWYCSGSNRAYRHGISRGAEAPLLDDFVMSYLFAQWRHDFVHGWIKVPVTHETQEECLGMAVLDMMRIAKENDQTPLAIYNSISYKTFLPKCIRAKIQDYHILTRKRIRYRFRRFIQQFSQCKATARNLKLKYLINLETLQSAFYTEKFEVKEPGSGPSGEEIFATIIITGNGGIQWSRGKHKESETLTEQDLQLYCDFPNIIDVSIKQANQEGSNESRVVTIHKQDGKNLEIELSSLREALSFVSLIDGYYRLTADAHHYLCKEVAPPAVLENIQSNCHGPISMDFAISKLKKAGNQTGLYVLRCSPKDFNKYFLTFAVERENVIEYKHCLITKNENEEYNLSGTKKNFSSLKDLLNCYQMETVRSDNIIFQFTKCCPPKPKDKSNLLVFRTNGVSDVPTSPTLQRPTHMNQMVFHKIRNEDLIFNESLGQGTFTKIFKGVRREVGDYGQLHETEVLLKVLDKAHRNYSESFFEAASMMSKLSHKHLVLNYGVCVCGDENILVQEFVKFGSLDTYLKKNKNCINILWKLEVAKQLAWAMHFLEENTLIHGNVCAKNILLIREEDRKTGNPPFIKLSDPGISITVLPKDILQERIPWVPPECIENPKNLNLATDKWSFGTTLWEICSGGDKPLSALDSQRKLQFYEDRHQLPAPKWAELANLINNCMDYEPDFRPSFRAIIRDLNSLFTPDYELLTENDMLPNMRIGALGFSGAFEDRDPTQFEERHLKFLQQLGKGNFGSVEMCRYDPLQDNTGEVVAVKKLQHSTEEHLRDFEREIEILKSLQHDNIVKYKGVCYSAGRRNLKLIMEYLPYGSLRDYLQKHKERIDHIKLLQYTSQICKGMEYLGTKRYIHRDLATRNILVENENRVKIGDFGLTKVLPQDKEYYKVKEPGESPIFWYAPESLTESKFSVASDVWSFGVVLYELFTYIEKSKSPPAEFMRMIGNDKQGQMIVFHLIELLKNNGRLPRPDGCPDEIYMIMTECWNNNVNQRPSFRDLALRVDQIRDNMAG

An IC50 of less than 10 nM was found for `CCC(CC)n1cc(-c2nc(-c3cnn([C@H]4C[C@](O)(CO)C4)c3)cn3nccc23)cn1` in this work.
